Test results taken from patent US9233949B2, “Treatment for oxidative stress and/or hypertension” (Georgetown University, priority 2009, dated 2016).

What was measured:
[1] = tested on: conscious salt-loaded spontaneously hypertensive rats; assay: MAP in conscious salt-loaded SHR, daily oral gavage of drugs dissolved in DMSO; format: in vivo, rat; details: for Δ MAP Day 1 / Δ MAP Day 2 / Δ MAP Day 3: mean vehicle-adjusted fall, 2 mL of 10 mmol/L daily oral gavage, DMSO, n=3; for blood pressure effect, summary of Table 1: over three days, DMSO vehicle
Protocol: In another experiment, conscious salt-loaded spontaneously hypertensive rats received daily oral gavage with 2 mL of 10 mmol/L tempol, telmisartan, tempol/telmisartan ester-linked adduct (YK), tempamine/telmisartan amide-linked adduct (PLJ), and tempol+telmisartan. The drugs were dissolved in DMSO.

[2] = tested on: Ang II-stimulated spontaneously hypertensive rat preglomerular vascular smooth muscle cells; assay: O2.^− generation in Ang II-stimulated PGVSMCs, lucigenin-enhanced chemiluminescence; format: cell-based
Protocol: Preglomerular vascular smooth muscle cells (PGVSMCs) were isolated from 13- to 15-week-old male spontaneously hypertensive rats purchased from Taconic Farms (Germantown, N.Y.) as previously described (3, 9). Briefly, 1% Fe2O3 in DMEM was injected into isolated kidneys through the renal artery. The iron-loaded kidney was removed from the rat, the cortex was minced and washed in a 1% collagenase IV solution. Blood vessels were collected on a magnet and incubated with DMEM/F12 supplemented with 10% FCS and 20 U of penicillin-streptomycin. Experiments were conducted between passage 5 and 15. PGVSMCs were cultured in DMEM/F12 supplemented with 10% FBS, 100 U/mL penicillin, 100 μg/mL streptomycin and 200 μg/mL glutamine at 37° C. in 5% CO2-95% air at 98% humidity. […]
To determine the effects of drugs, cells were pretreated with graded concentrations (10^−12 to 10^−4 M) of tempol, telmisartan, tempol plus telmisartan, and tempol/telmisartan ester-linked adduct or vehicle (PBS) for 2 hours. […] Chemiluminescence was quantitated in a reader (AutoLumatPlus LB 953; EG&G, Berthold, Germany). The dynamic tracing was recorded for 180 seconds after the addition of lucigenin (10 μmol·L^−1) and NADPH (100 μmol·L^−1). […] The protein concentrations were measured with Bio-Rad kit (Hercules, Calif.). […]

[3] = tested on: conscious spontaneously hypertensive rats; assay: Telemetric mean arterial pressure in conscious SHR on high salt diet after gavage; format: in vivo, rat; details: for reduction of MAP: 80 μmol·kg^−1 once-daily gavage, high salt diet, maximal 16-24 hours after each gavage; for reduction of BP compared with tempol: after the first and the fourth gavage
Protocol: Spontaneously hypertensive rats (SHR) were anesthetized with 3% isoflurane for placement of telemetric blood pressure recorders as described (46). After 10 days, spontaneously hypertensive rats were anesthetized with halothane between 9 and 10 am and given a 2 mL gavage. Each rat was first given a training gavage with 2 mL of vehicle (0.9% w/v sodium chloride) and, two days later a second vehicle gavage as the control group. We detected no differences in the pattern of 4-hourly BP recording after the first or second vehicle gavage, compared to a day in which no gavage was given (data not shown). Blood pressure was recorded continuously. Data are presented as mean values over 4-hr periods for mean arterial pressure (MAP) and heart rate (HR). Two days after the second vehicle gavage, rats were again anesthetized with halothane and given a 2 mL gavage with one of the test drugs (10 mmol/L or 80 μmol·kg^−1). In random order rats received tempol, telmisartan, tempol plus telmisartan, or tempol/telmisartan ester-linked adduct (YK). Each rat received only one drug or drug combination. Two additional groups were tested similarly with candesartan and tempol+candesartan.
Preliminary studies were undertaken of antihypertensive responsiveness to gavage with 80 and 800 μmol kg^−1 of tempol. […] Therefore, the study was conducted in rats equilibrated to a high salt intake (Teklad Inc, 2826 Latham Drive, Madison, Wis. 53713) and given four daily doses of […] of drugs or vehicle.

AT2-R = molecular target: T1, AT2-R (Bos taurus, UniProt G5E6F7); assay: Angiotensin II, Type 2 receptor radioligand binding displacement; set-up: species or system bovine; details: 10^−8 M drug concentration, n=2 (FIG. 3B)
T1 construct: from tissue; host or cells: bovine cerebellum membranes
T1 sequence (G5E6F7 1-362): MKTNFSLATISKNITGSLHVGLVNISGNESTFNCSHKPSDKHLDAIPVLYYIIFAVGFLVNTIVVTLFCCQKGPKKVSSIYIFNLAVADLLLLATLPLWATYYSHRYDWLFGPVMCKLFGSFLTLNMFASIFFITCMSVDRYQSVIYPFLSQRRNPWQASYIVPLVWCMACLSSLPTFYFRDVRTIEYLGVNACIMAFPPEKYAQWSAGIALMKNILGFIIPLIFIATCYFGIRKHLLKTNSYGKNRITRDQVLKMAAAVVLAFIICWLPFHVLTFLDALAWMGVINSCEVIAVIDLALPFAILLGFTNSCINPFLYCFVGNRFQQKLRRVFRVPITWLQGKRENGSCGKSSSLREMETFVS
Protocol: Angiogensin II, Type 2 Assay.
The assay was performed with a membrane preparation from bovine cerebellum. 200 μL of receptor suspension was re-suspended as 400 units in 80 mL and 100 units in 20 mL. The ligand [^125I]Tyr-4-Angiotensin II ([M] 1E-^10, Kd (binding affinity) 4E-^10, Bmax 2.11 fmol/mg) was used as a control. Radioactivity was counted in DPM. The assay buffer was 50 mM TRIS-HCl, containing 100 mM NaCl, 1 mM MgCl2, 0.1 mM Bacitracin, 0.1% BSA, (pH 7.2 at 25° C.) in an assay volume of 250 μL. Radioligand: 25 μL of Sar1, Tyr4-[^125I].

[4] = tested on: O2.^− generated by xanthine plus xanthine oxidase; assay: Cell-free SOD mimetic / antioxidant assay, lucigenin-enhanced chemiluminescence; format: biochemical; details: drugs 10^−4 M, cell-free buffer with xanthine plus xanthine oxidase
Protocol: Low dose (10 μmol L^−1) lucigenin-enhanced chemiluminescence was used as previously described, to detect O2.^−, antioxidants or SOD mimetic properties. Vehicle or drugs (10^−4 M) were first added to cell-free buffer with O2.^− stimulated with xanthine (25 μmol/L) plus xanthine oxidase (9 IU/mL) to study the intrinsic antioxidant properties of the drugs used (34). Subsequent studies were performed in PGVSMCs from spontaneously hypertensive rats grown in 6-well plates. Cells (10^6 cells per well) were stimulated for 4 hours with Ang II (10^−6 M) to generate O2.^− in the presence of vehicle or drugs (19, 34, 45).

Row | Compound | Δ MAP Day 1 [1] | Δ MAP Day 2 [1] | Δ MAP Day 3 [1] | blood pressure effect, summary of Table 1 [1] | inhibition of O2.^− generation, tempol versus telmisartan ([2]; at 10^−4 M) | reduction of MAP [3] | fall in MAP, high salt (6 g·100 g^−1) compared to normal salt (0.3 g·100 g^−1) diet ([3]; pilot study, 16-24 hours after tempol 80 μmol kg^−1) | fall in MAP after 4 daily doses compared to the first dose ([3]; pilot study, high salt intake) | AT2-R binding displacement (AT2-R) | inhibition of O2.^− generation ([2]; 10^−12 to 10^−4 M, 10^−6 M Ang II for 4 hours, comparison at 10^−11, 10^−10 and 10^−6 M) | reduction of BP compared with single drugs ([3]; 12-24 hours after the first gavage) | additive effect on BP with repeated dosing ([3]; 16-24 hours after the fourth gavage) | reduction of MAP compared with candesartan or candesartan plus tempol ([3]; over 24 hours) | reduction of blood pressure compared with candesartan or candesartan plus tempol ([3]; over four days) | inhibition of lucigenin-enhanced chemiluminescence counts [4] | reduction of BP compared with tempol [3]
1 | CCCc1nc2c(C)cc(-c3nc4ccccc4n3C)cc2n1Cc1ccc(-c2ccccc2C(=O)NC2CC(C)(C)N([O])C(C)(C)C2)cc1 [PLJ] | −13 mmHg | −14 mmHg | −14 mmHg | reduce blood pressure of conscious SHR similar to telmisartan | – | – | – | – | – | – | – | – | – | – | – | –
2 | CC1(C)CC(O)CC(C)(C)N1[O] [Tempol, tempol] | 0 mmHg | −4 mmHg | −2 mmHg | apparent absence of any consistent effect | significantly (p<0.05) more effective than telmisartan | reduced the MAP | twice as great | twice as great | – | – | – | – | – | – | – | –
3 | CCCc1nc2c(C)cc(-c3nc4ccccc4n3C)cc2n1Cc1ccc(-c2ccccc2C(=O)OC2CC(C)(C)N([O])C(C)(C)C2)cc1 [YK] | −13 mmHg | −14 mmHg | −14 mmHg | reduce blood pressure of conscious SHR similar to telmisartan | – | reduced the MAP | – | – | without effects on AT2-R binding | significantly more effective than tempol or telmisartan alone | more effective than either tempol or telmisartan | lost with repeated dosing | reduced MAP significantly more than candesartan or candesartan plus tempol | still reduced blood pressure more than candesartan or candesartan plus tempol | – | –
4 | CCCc1nc2c(C)cc(-c3nc4ccccc4n3C)cc2n1Cc1ccc(-c2ccccc2C(=O)O)cc1 [Telmisartan, telmisartan] | −14 mmHg | −20 mmHg | −16 mmHg | – | – | reduced the MAP | – | – | – | – | – | – | – | – | ineffective | significantly more effective in reducing the BP than tempol
5 | CCOc1nc2cccc(C(=O)O)c2n1Cc1ccc(-c2ccccc2-c2nnn[nH]2)cc1 [candesartan] | – | – | – | – | – | reduced the MAP | – | – | – | – | – | – | – | – | – | significantly more effective in reducing the BP than tempol
